The values below come from patent US11566044B2, “Disulfide bond containing compounds and uses thereof” (THE UNIVERSITY OF QUEENSLAND, priority 2017, dated 2023).

The series can be described thus: DTNB assay: stability of the S—S bond to 20% v/v piperidine in DMF (Fmoc-SPPS conditions). It counts as physicochemical. Particulars: 20% v/v piperidine in DMF for 6 h, absorbance at 308 and 412 nm. An excerpt:
Prior to exploring further applications of the novel disulfide-bridged amino acid, the stability of its —S—S— bond to reagents/conditions employed during Fmoc-SPPS had to be established. For each deprotection step performed during peptide synthesis, a resin bound random amino acid is exposed to basic reagents with 20% v/v piperidine in DMF. —S—S— bond stability to these basic conditions was therefore trialled using a di-Boc protected disulfide bridged amino acid of the invention (compound 11), since the Boc protecting groups themselves would be stable to the basic conditions. […] Premature reduction of the disulfide-containing amino acid by piperidine would lead to the formation of free thiols that react with DTNB releasing NTB^2−, which can be readily identified spectrophotometrically at 412 nm.
DTNB (1 mg) was dissolved in 1 mL of methanol and a 1 mg/mL stock solution was prepared. A DTNB calibration curve was prepared by measurement of the absorbance (λmax=308 nm) over a range of concentrations (5, 10, 15, 20, and 25 μg/mL) in the presence of 20% v/v piperidine in DMF (100 μL). […]
Stability of the disulfide-bridged amino acid (compound 11) to basic conditions was assessed next, where it was first incubated with 20% v/v piperidine in DMF for up to 6 h and from that different concentrations of samples were prepared. […]

Turning to `COC(=O)[C@H](CSSC(C)(C)CNC(=O)OC(C)(C)C)NC(=O)OC(C)(C)C` [compound 11, Boc-Cys(S—SC(CH3)2CH2NH(Boc))—OCH3], the “Base stability of the S—S bond (free thiols generated/detected)” value is “no free thiols were generated/detected”.
